Reference: the NIST ThermoML archive (doi:10.1021/acs.jced.7b00114)
Numbers after ± are expanded uncertainties.

Assay: activity coefficient (dimensionless); of the first substance listed, at infinite dilution; xn = mol fraction of the nth substance listed
Settings: Liquid, Chemical equilibration / Heterogeneous equilibration, x1 = 0

Row | Compound | activity coefficient (298.15 K, 100 kPa) | activity coefficient (303.15 K, 100 kPa) | activity coefficient (308.15 K, 100 kPa) | activity coefficient (313.15 K, 100 kPa) | activity coefficient (318.15 K, 100 kPa) | activity coefficient (323.15 K, 100 kPa) | activity coefficient (278.15 K, 99 kPa) | activity coefficient (283.15 K, 99 kPa) | activity coefficient (288.15 K, 99 kPa) | activity coefficient (293.15 K, 99 kPa) | activity coefficient (298.15 K, 99 kPa) | activity coefficient (303.15 K, 99 kPa) | activity coefficient (328.15 K, 100 kPa) | activity coefficient (283.15 K, 100 kPa) | activity coefficient (293.15 K, 100 kPa)
1 | O [water] + Clc1ccccc1 | 376 ± 34 | 318 ± 29 | 271 ± 24 | 235 ± 21 | 202 ± 18 | 177 ± 16 |  |  |  |  |  |  |  |  | 
2 | O [water] + COc1ccc(Br)cc1 | 119 ± 10 | 106 ± 9.3 | 93.7 ± 8.2 | 83.3 ± 7.3 | 74.1 ± 6.4 | 65.5 ± 5.7 |  |  |  |  |  |  |  |  | 
3 | O [water] + CCOc1ccccc1 | 110 ± 9.6 | 97 ± 8.5 | 87.3 ± 7.6 | 77.7 ± 6.8 | 69.9 ± 6.1 | 62.7 ± 5.4 |  |  |  |  |  |  |  |  | 
4 | O [water] + Brc1ccccc1 | 367 ± 33 | 311 ± 28 | 264 ± 24 | 226 ± 20 | 189 ± 17 | 164 ± 15 |  |  |  |  |  |  |  |  | 
5 | O [water] + ClC=C(Cl)Cl |  |  |  |  |  |  | 1200 ± 130 | 978 ± 100 | 806 ± 84 | 663 ± 69 | 524 ± 54 | 441 ± 45 |  |  | 
6 | O [water] + COc1ccccc1 | 95.3 ± 8.3 | 84.4 ± 7.3 | 75.8 ± 6.6 | 68.8 ± 6 | 61.7 ± 5.3 | 55.9 ± 4.8 |  |  |  |  |  |  | 50 ± 4.3 |  | 
7 | O [water] + FC(F)(F)c1ccccc1 | 362 ± 33 | 302 ± 27 | 256 ± 23 | 218 ± 20 | 181 ± 16 | 155 ± 14 |  |  |  |  |  |  |  |  | 
8 | O [water] + Cc1ccccc1 |  | 300 ± 27 |  | 214 ± 19 | 184 ± 16 | 155 ± 14 |  |  |  |  |  |  |  | 620 ± 57 | 423 ± 39
